Assay [1] can be described thus: microbe, parasite or virus in culture. As to conditions: Mycobacterium tuberculosis, 72 h, read-out: pIC50 (converted).
The nature of assay [2]: microbe, parasite or virus in culture. The conditions noted are these: Mycobacterium tuberculosis, 96 h, read-out: pIC50 (converted).

On to `Cc1ccc(NC(C)C(=O)NCc2cccs2)cc1Cl` (configuration not stated), for which the IC50 in assay [1] was 5.25 µM; in assay [2] it was 5.63 µM.
Taken in the same sequence, the figures for `COCCOCCNC(=O)C(C)Oc1ccccc1C(F)(F)F` (configuration not stated) were more than 50.1 µM and more than 50.1 µM.
Take `CCC(CO)NC(=O)Cc1ccc(NC(=O)CC2=CCCCC2)cc1` (configuration not stated): the IC50 in assay [1] and in assay [2] was more than 50.1 µM each time.
For the compound `CC(=O)Nc1nc(C(=O)NCCOc2ccc(C)cc2)cs1`, the IC50 in assay [1] and in assay [2] was more than 50.1 µM each time.
As for `Cc1cccc(-c2nnc(C(C)N3CCn4c(C)nnc4C3)o2)c1` (configuration not stated), the IC50 in assay [1] and in assay [2] was more than 50.1 µM throughout.
`CC(c1ccccn1)N(C)C(=O)NCCn1c(=O)oc2ccccc21` (configuration not stated): the IC50 in assay [1] and in assay [2] was more than 50.1 µM in each case.
Consider `O=C(c1c[nH]c2ccccc2c1=O)N1CCSCC1`, for which the IC50 in assay [1] is 27.8 µM; in assay [2] it was more than 50.1 µM.
Taken in the same sequence, the figures for `CC(C)c1nsc(NC2CCOC3(CCCC3)C2)n1` (configuration not stated) were 12 µM and 6.74 µM.
As for `CC(C)Oc1ccc(CSc2nnc(CN3CCCC3=O)o2)cc1`, the results for the IC50 in assay [1] and in assay [2] were 43.5 µM and 14.5 µM, respectively.
The matching figures for `CN(C)CCCN1CC2(CCN(C3CCCOC3)CC2)OC1=O` (configuration not stated): more than 50.1 µM and more than 50.1 µM.
The matching figures for `NC(=O)c1ccc(-n2ccnc2-c2cccc(O)c2)cc1N1CCCC1`: more than 50.1 µM and more than 50.1 µM.
The matching figures for `CCc1ccccc1OC1CN(C(=O)c2ccnc(OC)c2)C1`: 21.3 µM and 43.4 µM.
On to `CC(C)[C@@H]1CN(C(=O)NCc2ccco2)C[C@H]1N(C)C`, for which the IC50 in assay [1] and in assay [2] was more than 50.1 µM each time.
For `O=C1N(Cc2ccc(F)c(F)c2)CCCC12CCN(C1CCCCC1)C2` (configuration not stated), the IC50 was 15.1 µM in assay [1] and 26.3 µM in assay [2].
The matching figures for `Nc1cc(N2CCCC(CO)(Cc3ccccc3F)C2)nc(N)n1` (configuration not stated): 47.1 µM and 45.3 µM.
Taken in the same sequence, the figures for `FC(F)(F)c1ccnc(N2CCC(c3nccn3CC3CC3)CC2)n1` were 44.6 µM and 16.3 µM.
The matching figures for `CCc1nc(NC2CCCN(C(=O)c3cccs3)C2)c2cnn(C)c2n1` (configuration not stated): more than 50.1 µM and more than 50.1 µM.
Take `CCC(O)CNc1ccc(-c2nc(CC(C)C)no2)cn1` (configuration not stated): the IC50 in assay [1] was 44.9 µM; in assay [2], 26.7 µM.
Taken in the same sequence, the figures for `CN(C(=O)CC1=CCCCC1)C1CCCN(C2Cc3ccccc3C2)C1` (configuration not stated) were more than 50.1 µM and more than 50.1 µM.
Turning to `COCCNS(=O)(=O)c1cccc2c1CN(C(=O)c1ccoc1)CC2`, the IC50 in assay [1] and in assay [2] was more than 50.1 µM throughout.
On to `O=C(NCc1n[nH]c2c1CCCCC2)c1cnn2c1CCCC2`, for which the IC50 in assay [1] and in assay [2] was more than 50.1 µM each time.
On to `COc1ccccc1OCCn1c(C)c(C)oc1=O`, for which the IC50 in assay [1] and in assay [2] was more than 50.1 µM in each case.
`CNc1nc(C)cc(NCc2cc(C)cc3c(C)c(C)[nH]c23)n1`: the IC50 in assay [1] was 28 µM; in assay [2] it was 44.8 µM.
Taken in the same sequence, the figures for `O=C(Cn1cccn1)N1CCC(Cn2cc(-c3ccsc3)nn2)CC1` were more than 50.1 µM and more than 50.1 µM.
The matching figures for `CCc1ncc(-c2cn(CCSc3ncn[nH]3)nn2)cn1`: more than 50.1 µM and more than 50.1 µM.
Taken in the same sequence, the figures for `CN(Cc1ccccc1)CC1(O)CCCN(CCC2CCCCC2)C1=O` (configuration not stated) were more than 50.1 µM and more than 50.1 µM.
Consider `Cc1ccc(N2CCN(c3ccccc3C)CC2C)nn1` (configuration not stated), for which the IC50 in assay [1] and in assay [2] was more than 50.1 µM in each case.
In the case of `Cc1n[nH]c(C)c1CN(C)C(C(=O)O)c1c(F)cccc1OC(C)C` (configuration not stated), the IC50 in assay [1] and in assay [2] was more than 50.1 µM each time.
In the case of `Cc1nc[nH]c1CN1CCCC12CCN(c1nc3ccccc3s1)CC2`, the IC50 in assay [1] is 46 µM; in assay [2], more than 50.1 µM.
Regarding `Cc1csc(CN(C)CCOc2ccccc2)n1`, the results for the IC50 in assay [1] and in assay [2] were 23 µM and 20.5 µM, respectively.
The matching figures for `Cc1cc2nc(C(C)C)cc(N(C)CC3CCCN3C)n2n1` (configuration not stated): 9.21 µM and more than 50.1 µM.
On to `COC[C@H]1CCCN1c1nccc(-c2cnn(-c3ccccc3C)c2)n1`, for which the IC50 in assay [1] was 17.8 µM; in assay [2], 43.3 µM.
Taken in the same sequence, the figures for `CCN(C)Cc1nc(-c2ccccc2NS(C)(=O)=O)oc1C` were more than 50.1 µM and more than 50.1 µM.
The matching figures for `CN(CCc1ccccc1)Cc1nc(Cc2cccc(F)c2)no1`: 2.69 µM and 33.8 µM.
Consider `COc1ccnc(CN2CCCC(CCc3ccc(F)cc3)C2)c1OC` (configuration not stated), for which the values for the IC50 in assay [1] and in assay [2] were 34.7 µM and 20.9 µM, respectively.
For the compound `Cc1cnc(N2CCCC(c3ccccc3)C2)nc1-c1ncnn1C` (configuration not stated), the IC50 in assay [1] and in assay [2] was more than 50.1 µM each time.
Turning to `Cc1cc(CN(C)CC2(O)CCCN(CCC3CCCCC3)C2=O)no1` (configuration not stated), the IC50 in assay [1] and in assay [2] was more than 50.1 µM in each case.
As to `CCc1ccccc1OC1CN(C(=O)c2cccs2)C1`, the IC50 in assay [1] was 5.46 µM; in assay [2] it was 14.2 µM.
The matching figures for `Cc1cc(NCCCC(F)(F)F)n2nc(C)cc2n1`: 15.6 µM and 10.2 µM.
Regarding `c1ccc(CCc2n[nH]c(C3CCC3)n2)cc1`, the IC50 in assay [1] and in assay [2] was more than 50.1 µM each time.
As for `Cc1[nH]c(=O)[nH]c(=O)c1CN1CCCC(CCc2ccccc2F)C1` (configuration not stated), the IC50 in assay [1] and in assay [2] was more than 50.1 µM in each case.
`O=C(c1cn(-c2ccccc2)nn1)N1CCOCC(O)C1` (configuration not stated): the IC50 in assay [1] and in assay [2] was more than 50.1 µM in each case.
As for `CN(Cc1nc(CC2CC2)no1)CC1Cc2ccccc2O1` (configuration not stated), the figures for the IC50 in assay [1] and in assay [2] were 38 µM and 22.8 µM, respectively.
Taken in the same sequence, the figures for `N#Cc1cccc(S(=O)(=O)N2CCCCC2CCN2CCCC2)c1` (configuration not stated) were 14.3 µM and 8.72 µM.
Consider `CSc1ncc(C(=O)N2CCN(c3ccccc3C)CC2C)cn1` (configuration not stated), for which the IC50 was 16.4 µM in assay [1] and 18.3 µM in assay [2].
Consider `O=C(c1cc(COc2ccc3c(c2)OCO3)[nH]n1)N1CCSCC1`, for which the IC50 in assay [1] is 31.8 µM; in assay [2], 33.5 µM.
Taken in the same sequence, the figures for `Cc1ncsc1CCC(=O)N1CCCC1c1cccnc1` (configuration not stated) were more than 50.1 µM and more than 50.1 µM.
In the case of `Fc1ccc(N2CCCN(c3ccc(Cn4ccnc4)cn3)CC2)cc1`, the IC50 is 29.6 µM in assay [1] and 43.5 µM in assay [2].
The matching figures for `COc1cccc(CN2CCC(CO)(Cc3ccc(Cl)cc3)CC2)c1O`: 29.4 µM and 26.1 µM.
For the compound `Cc1ccoc1C(=O)N1CCC(n2cc(-c3ccsc3)nn2)CC1`, the IC50 in assay [1] and in assay [2] was more than 50.1 µM in each case.
Regarding `Cc1ccc(CN(Cc2ccncc2)C2CCN(C)CC2)s1`, the IC50 in assay [1] and in assay [2] was more than 50.1 µM each time.
Take `Cc1ccc(NC2CCCN(Cc3ccc(Cl)cc3)C2)nn1` (configuration not stated): the values for the IC50 in assay [1] and in assay [2] were 7.35 µM and 6.67 µM, respectively.
Taken in the same sequence, the figures for `COc1cc(Oc2ccc(C(F)(F)F)cn2)ccc1CN1CCCC1` were 13.9 µM and 16.6 µM.
The matching figures for `CCc1nn(C)c(Cl)c1CN1CCN(c2ccc(C(N)=O)cn2)CC1`: more than 50.1 µM and more than 50.1 µM.
The matching figures for `Cc1cc(NCC2CCS(=O)(=O)C2)n2nc(C)cc2n1` (configuration not stated): more than 50.1 µM and more than 50.1 µM.
In the case of `COc1cccc(-c2ncc(CN3CC[C@H]4CC[C@@H](C3)N4)s2)c1`, the figures for the IC50 in assay [1] and in assay [2] were 41.2 µM and 24.5 µM, respectively.
Take `COc1cc(Cl)cc(CN2CCCC(N3CCCC3)C2)c1OC` (configuration not stated): the IC50 in assay [1] was 23.3 µM; in assay [2] it was 28.3 µM.
The matching figures for `Cc1nn(C2CCCC2)c2nc(C(C)(C)CN3CCN(C)CC3)[nH]c12`: more than 50.1 µM and more than 50.1 µM.
For `O=C1Nc2ccccc2NC12CCN(c1cccc(C(F)(F)F)n1)CC2`, the IC50 in assay [1] and in assay [2] was more than 50.1 µM each time.
For the compound `CCSc1ncc(CN2CCN(c3nc(C)cnc3C)CC2)cn1`, the IC50 was more than 50.1 µM in assay [1] and 28.7 µM in assay [2].
As for `Cc1cc(Cl)ccc1C(=O)C1CCCN(Cc2cnc(N(C)C)s2)C1` (configuration not stated), the IC50 is 45.7 µM in assay [1] and 40.8 µM in assay [2].
The matching figures for `CC(C)c1nccn1C(C)C(=O)N1CCN(c2cnccn2)CC1` (configuration not stated): more than 50.1 µM and more than 50.1 µM.
Taken in the same sequence, the figures for `CN(C)c1ncnc2c1CCN(C(=O)CN1CCCCC1)C2` were more than 50.1 µM and more than 50.1 µM.
In the case of `CSCCNC(=O)c1coc(COc2ccc3sc(C)nc3c2)n1`, the IC50 in assay [1] and in assay [2] was more than 50.1 µM throughout.
With `Cn1ncc2c(N3CCCN4CCC[C@H]4C3)nc(C(C)(C)C)nc21`, the values for the IC50 in assay [1] and in assay [2] were more than 50.1 µM and 47 µM, respectively.
The matching figures for `Cc1cc(C(=O)NCc2csc(N(C)C)n2)c2ccc(C)c(C)c2n1`: 19 µM and 13.6 µM.
Taken in the same sequence, the figures for `Cc1nc(CN2CCCC(CCc3ccccc3C(F)(F)F)C2)no1` (configuration not stated) were 28.7 µM and 26.2 µM.
Taken in the same sequence, the figures for `Cc1ccc(C(=O)N2CCCC(Nc3ccc(F)cc3)C2)cc1` (configuration not stated) were 18.7 µM and 20.9 µM.
In the case of `OC1(CNCCN2CCc3ccccc32)CNCCOC1` (configuration not stated), the IC50 in assay [1] and in assay [2] was more than 50.1 µM each time.
With `COc1ccc(-c2ccccc2CCN)c(OC)c1`, the IC50 was 48.2 µM in assay [1] and 41.6 µM in assay [2].
Taken in the same sequence, the figures for `Cc1cc(NC2CCC(=O)N(C)C2)n2nccc2n1` (configuration not stated) were more than 50.1 µM and more than 50.1 µM.
Taken in the same sequence, the figures for `CCC[C@@H]1CN(Cc2ccc3c(c2)OCCO3)C[C@H]1C(=O)O` were more than 50.1 µM and more than 50.1 µM.
The matching figures for `O=C(O)[C@@H]1CN(Cc2ccc(-c3cc[nH]n3)s2)C[C@H]1C1CC1`: more than 50.1 µM and more than 50.1 µM.
As for `COc1coc(CN2CCCC(CCc3ccccc3C)C2)cc1=O` (configuration not stated), the IC50 was 16.1 µM in assay [1] and 16.2 µM in assay [2].
The matching figures for `CCCN1CCC(Nc2cc(-c3ccccc3)ccc2OC)CC1`: 23.4 µM and 32.9 µM.
In the case of `Cc1[nH]c(=O)[nH]c(=O)c1CN1CCCC(CCc2ccc(F)cc2F)C1` (configuration not stated), the IC50 in assay [1] and in assay [2] was more than 50.1 µM each time.

Values taken from ChEMBL document CHEMBL3988442, “University of Dundee, Small-Polar-MMV Screening Library” (2021).
